Measured values from US20110263693A1, “CELASTROL, GEDUNIN, AND DERIVATIVES THEREOF AS HSP90 INHIBITORS” (DANA-FARBER CANCER INSTITUTE, INC., priority 2006, published 2011).
Residues, ends and D or L forms follow the SMILES beside them. *: point of attachment. Cbz = O=C(OCc1ccccc1)*

Assays:
gedunin signature = test: Connectivity Map query with the gedunin signature; type: cell-based, human; design: key to gedunin score (connectivity score): connectivity score, based on Kolmogorov-Smirnov statistic; details: for gedunin score (connectivity score): enrichment of the gedunin signature (20 μM gedunin at 6 hours, LNCaP) in the compound's Connectivity Map profiles, 6 hr treatment; for gedunin rank: rank by gedunin score among 164 Connectivity Map compounds
From the text: (§1) Indeed, a major challenge in cell-based chemical biology and chemical genomics is the identification of compounds' targets (Gardner et al., 2003). We hypothesized that gene expression signatures could be used to identify compound action based on the similarity of such compound-induced signatures to signatures of existing drugs of known mechanism. We therefore employed a collection of gene expression profiles of drug-treated cell lines that was developed in our lab, termed the Connectivity Map (Lamb et al., 2006). This database comprises 453 genome-wide Affymetrix expression profiles derived from the treatment of human cell lines with 164 small molecules, primarily FDA-approved drugs. A 6 hr treatment time was chosen in an attempt to capture the primary, and potentially mechanistic, effects of the compounds rather than the downstream phenotypic consequences.
(§2) In order to use the Connectivity Map to gain insight into celastrol and gedunin function, we first defined a gene expression signature of celastrol and gedunin activity. The expression signatures of celastrol and gedunin were derived by expression profiling of RNA from LNCaP cells treated with celastrol (1.25 μM), gedunin (20 μM), and vehicle (DMSO) for 6 hr; signatures were defined using comparative marker selection to identify transcripts that distinguished between the compound- and vehicle-treated profiles by the signal-to-noise (SNR) metric. The enrichment of these signatures in the gene expression profiles of the Connectivity Map database was then assessed using a gene enrichment metric, the connectivity score, based on the Kolmogorov-Smirnov statistic (Lamb et al., 2003).
(§3) The celastrol and gedunin signatures were developed from RMA-processed microarray data from LNCaP cells treated with 1.25 μM celastrol or 20 μM gedunin for 6 hours. Comparative marker selection was used to identify markers that distinguished celastrol- and/or gedunin-treated samples from vehicle-treated samples by the median SNR (Golub et al., 1999). The top 50 markers that increased and decreased relative to vehicle-treated controls were used as the signatures.
(§4) The current version of the Connectivity Map data set (build01) contains genome-wide expression data for 453 treatment and vehicle control pairs, representing 164 distinct small molecules. Cell treatments and Affymetrix profiling were predominantly carried out in MCF7 cells with 6 hr treatments as detailed (Table 4) (Lamb et al., 2006). Enrichment of the induced and repressed genes of a signature within each Connectivity Map treatment profile was estimated with a metric based on the Kolmogorov-Smirnov statistic as described (Lamb et al., 2003, Lamb et al., 2006). Connectivity Map data are available at www.broad.mit.edu/cmap/ and GEO (accession number GSE5258).
(§5) For the celastrol and gedunin signatures, RMA-processed data was filtered and thresholded (min fold change=2, min absolute change=50, floor=10, ceiling=16000). Comparative marker selection (GenePattern) was used to identify markers that distinguished celastrol- and/or gedunin-treated samples from vehicle-treated samples by the median SNR. The top fifty markers that increased and decreased relative to vehicle treated controls were used as the celastrol, gedunin, or joint celastrol/gedunin signatures.
(§6) The current version of The Connectivity Map dataset (build01) contains genome-wide expression data for 453 treatment and vehicle control pairs, representing 164 distinct small molecules. Cell treatments were predominantly carried out in the MCF7 cell line for 6 h as detailed in Table 4. Affymetrix profiling was then carried out as described (Lamb et al., 2006).

celastrol signature = test: Connectivity Map query with the celastrol signature; type: cell-based, human; design: key to celastrol score (connectivity score): connectivity score, based on Kolmogorov-Smirnov statistic; details: for celastrol score (connectivity score): enrichment of the celastrol signature (1.25 μM celastrol at 6 h, LNCaP) in the compound's Connectivity Map profiles, 6 hr treatment; for celastrol rank: rank by celastrol score among 164 Connectivity Map compounds
From the text: as §1, §2, §3, §4, §5, §6

| Compound | gedunin score (connectivity score) (gedunin signature) | gedunin rank (gedunin signature) | celastrol score (connectivity score) (celastrol signature) | celastrol rank (celastrol signature) |
| --- | --- | --- | --- | --- |
| CCCCCCCCCCCCCCCC(=O)N[C@H](CN1CCOCC1)[C@H](O)c1ccccc1 (racemic) [DL-PPMP] | 0 | 110 | 0 | 138 |
| NC(CO)C(=O)NNCc1ccc(O)c(O)c1O (centres unmarked) [benserazide] | −0.441 |  | 0 |  |
| O=C1CCC(N2C(=O)c3ccccc3C2=O)C(=O)N1 (centres unmarked) [thalidomide] | 0.121 |  | −0.256 |  |
| CC(=O)OCOC(c1ccc2ccccc2c1)P(=O)(OCOC(C)=O)OCOC(C)=O (centres unmarked) [HNMPA-(AM)3] | 0.365 | 36 | 0 | 103 |
| CC1(C)O[C@@H]2[C@@H](CO[C@@]3(COS(N)(=O)=O)OC(C)(C)O[C@@H]23)O1 [topiramate] | 0 |  | 0 |  |
| N=C(N)c1ccc(OCCCCCOc2ccc(C(=N)N)cc2)cc1 [pentamidine] | 0.456 |  | 0 |  |
| Cc1ccc2c(c1)C(=O)C1(O)CCN(c3ccccc3)C1=N2 (centres unmarked) [blebbistatin] | 0 | 107 | 0 | 87 |
| N#CC(=C(N)Sc1ccccc1)C(C#N)=C(N)Sc1ccccc1 [U0125] | 0 | 122 | 0 | 106 |
| CCCCC/C=C\C/C=C\C/C=C\C/C=C\CCCC(=O)O [arachidonic acid] | −0.222 |  | 0 |  |
| CC1=C(/C=C/C(C)=C/C=C/C(C)=C/C(=O)O)C(C)(C)CCC1 [tretinoin] | −0.206 |  | −0.084 |  |
| Clc1ccc(C(c2ccc(Cl)cc2)n2cc[n+](CC(OCc3ccc(Cl)cc3Cl)c3ccc(Cl)cc3Cl)c2)cc1 (centres unmarked) [calmidazolium] | 0.619 |  | 0.334 |  |
| Oc1ccc(C=Cc2cc(O)cc(O)c2)cc1 [resveratrol] | 0.4 |  | 0.266 |  |
| CSc1ccc(/C=C2/C(C)=C(CC(=O)O)c3cc(F)ccc32)cc1 [sulindac sulfide] | 0 |  | 0 |  |
| NC(=O)C(=O)O [oxamic acid] | 0 |  | −0.654 |  |
| COC1=C2C[C@@H](C)C[C@H](OC)[C@H](O)[C@@H](C)/C=C(\C)[C@H](OC(N)=O)[C@@H](OC)/C=C\C=C(/C)C(=O)NC(=CC1=O)C2=O [geldanamycin, reference compound] | 0.74 |  | 0.676 |  |
| NC(=O)c1cccc(N)c1 [3-aminobenzamide] | 0 |  | −0.587 |  |
| CS(=O)(=O)c1ccc(-n2nc(C(F)(F)F)cc2-c2ccc(F)cc2)cc1 [SC-58125] | 0.09 |  | −0.112 |  |
| C=CC[C@@H]1/C=C(\C)C[C@H](C)C[C@H](OC)[C@H]2O[C@@](O)(C(=O)C(=O)N3CCCC[C@H]3C(=O)O[C@H](/C(C)=C/[C@@H]3CC[C@@H](O)[C@H](OC)C3)[C@H](C)[C@@H](O)CC1=O)[C@H](C)C[C@@H]2OC [tacrolimus] | 0 |  | 0 |  |
| CN(C)c1ccc(O)c2c1C[C@H]1C[C@H]3[C@H](N(C)C)C(O)=C(C(N)=O)C(=O)[C@@]3(O)C(O)=C1C2=O [minocycline] | 0 |  | 0 |  |
| C[C@]12CCC(=O)C=C1CC[C@H]1[C@@H]3CC[C@](O)(C(=O)CO)[C@@]3(C)C[C@H](O)[C@@]12F [fludrocortisone] | 0 |  | 0 |  |
| CC1=C(CC(=O)O)c2cc(F)ccc2/C1=C\c1ccc(S(C)(=O)=O)cc1 [exisulind] | −0.277 |  | −0.038 |  |

| Compound | gedunin score (connectivity score) (gedunin signature) | gedunin rank (gedunin signature) | celastrol score (connectivity score) (celastrol signature) | celastrol rank (celastrol signature) |
| --- | --- | --- | --- | --- |
| CN1CCN(CCCN2c3ccccc3Sc3ccc(Cl)cc32)CC1 [prochlorperazine] | 0.507 |  | 0.559 |  |
| CCOC(=O)C(C)(C)Oc1ccc(Cl)cc1 [clofibrate] | 0 |  | 0 |  |
| Nc1ncn([C@H]2C[C@H](O)[C@@H](CO)O2)c(=O)n1 [decitabine] | 0 |  | 0 |  |
| CCOC(=O)C1=C(C)NC(C)=C(C(=O)OC)C1c1cccc(Cl)c1Cl (centres unmarked) [felodipine] | 0.171 |  | 0.171 |  |
| CC(C)C[C@@H](C=O)NC(=O)[C@H](CC(C)C)NC(=O)[C@H](CC(C)C)NC(=O)OCc1ccccc1 [MG-132] (Cbz-Leu-Leu-Leu-aldehyde) | 0.912 |  | 0.902 |  |
| CCCCNC(=O)NS(=O)(=O)c1ccc(C)cc1 [tolbutamide] | 0 |  | 0.497 |  |
| O=C(O)c1ccccc1Nc1cccc(C(F)(F)F)c1 [flufenamic acid] | 0 |  | 0 |  |
| Cc1ccc(N(CC2=NCCN2)c2cccc(O)c2)cc1 [phentolamine] | 0 |  | 0 |  |
| O=C(c1ccc(OCCN2CCCCC2)cc1)c1c(-c2ccc(O)cc2)sc2cc(O)ccc12 [raloxifene] | 0.292 |  | 0 |  |
| Nc1c(O)cccc1C(=O)CC(N)C(=O)O (racemic) [3-hydroxy-DL-kynurenine] | 0 | 96 | 0 | 136 |
| Cc1nc2c(O)cccc2c(=O)[nH]1 [NU-1025] | −0.222 | 152 | −0.362 | 156 |
| Nc1ccc(O)c(C(=O)O)c1 [mesalazine] | 0 |  | 0 |  |
| CCCC(CCC)C(=O)O [valproic acid] | 0.136 |  | 0.086 |  |
| CC#CCC(C)[C@H](O)/C=C/[C@@H]1[C@H]2C/C(=C/CCCC(=O)O)C[C@H]2C[C@H]1O (some centres unmarked) [iloprost] | 0.101 |  | 0.098 |  |
| COc1cc2c(c(OC)c1OC)-c1ccc(OC)c(=O)cc1[C@@H](NC(C)=O)CC2 [colchicine] | 0.192 |  | 0.391 |  |
| butirosin | −0.55 | 162 | 0 | 132 |
| CSc1ccc2c(c1)N(CCC1CCCCN1C)c1ccccc1S2 (centres unmarked) [thioridazine] | 0.522 |  | 0.308 |  |
| CC(=O)c1c(O)c(C)c(O)c(Cc2c(O)c3c(c(C(=O)/C=C/c4ccccc4)c2O)OC(C)(C)C=C3)c1O [rottlerin] | 0.209 |  | 0.355 |  |
| O=C(CCCCCCC(=O)Nc1ccccc1)NO [vorinostat] | 0.554 |  | 0 |  |
| CCCCC/C=C/C=C1/C(=O)C=C[C@@H]1C/C=C\CCCC(=O)O [15-delta prostaglandin J2] | 0.565 | 9 | 0.76 | 7 |
